Measurements from publication PMC10065276, “Enhanced therapeutic window for antimicrobial Pept-ins by investigating their structure-activity relationship” (PLOS ONE, 2023).
Positions of bridges follow the written chain, without caps; N, C: chain ends. Residues, ends and D or L forms follow the SMILES beside them.

System: E. coli BL21
Conditions: BL21, 17 h
Description: The peptide MIC was determined via the broth microdilution assay according to the EUCAST guideline, using 96-well polystyrene flat-bottom microtiter plates (BD Biosciences). Briefly, a single colony was inoculated in 5 mL Mueller-Hinton (MH) medium and incubated, while shaking at 37°C, to the end-exponential growth phase. The bacterial culture was subsequently diluted to 0.005 McFarland (McF) (~1.5x10^6 CFU/mL) with fresh MH medium. Two-fold serial peptide-dilutions were prepared in 50 μL MH medium resulting in a concentration range of 0.75 to 100 μg/mL (at least three wells for each concentration). Afterwards, 50 μL of the freshly diluted bacterial suspension (0.005 McF) was mixed with different peptide concentrations in the 96-well plate, performed in triplicates. The plate was ultimately incubated at 37°C overnight without shaking for 17 hours. The MIC was determined as the lowest peptide concentration without visible bacterial growth.

| Structure (SMILES) | BL21 MIC [µg/mL] | BL21 MIC, SS bond [µg/mL] | BL21 MIC, no SS bond [µg/mL] |
| --- | --- | --- | --- |
| CC(C)C[C@H](NC(=O)CNC(=O)[C@H](CCCNC(=N)N)NC(=O)[C@@H]1CCCN1C(=O)[C@H](CCCNC(=N)N)NC(=O)[C@H](CCCNC(=N)N)NC(=O)[C@@H](NC(=O)[C@H](CC(C)C)NC(=O)[C@H](C)NC(=O)[C@H](CC(C)C)NC(=O)CNC(=O)[C@H](CC(C)C)NC(=O)[C@H](C)NC(=O)[C@@H](N)CCCNC(=N)N)C(C)C)C(=O)NCC(=O)N[C@@H](CC(C)C)C(=O)N[C@@H](C)C(=O)N[C@@H](CC(C)C)C(=O)N[C@H](C(=O)N[C@@H](CCCNC(=N)N)C(=O)N[C@@H](CCCNC(=N)N)C(=O)O)C(C)C [Peptide P2_G2A] (H-RALGLALVRRPRGLGLALVRR-OH) | 6.25 | – | – |
| CC(C)C[C@H](NC(=O)CNC(=O)[C@H](CCCNC(=N)N)NC(=O)[C@@H]1CCCN1C(=O)[C@H](CCCNC(=N)N)NC(=O)[C@H](CCCNC(=N)N)NC(=O)[C@@H](NC(=O)[C@H](CC(C)C)NC(=O)[C@H](C)NC(=O)[C@H](CC(C)C)NC(=O)[C@H](C)NC(=O)[C@H](CC(C)C)NC(=O)CNC(=O)[C@@H](N)CCCNC(=N)N)C(C)C)C(=O)NCC(=O)N[C@@H](CC(C)C)C(=O)N[C@@H](C)C(=O)N[C@@H](CC(C)C)C(=O)N[C@H](C(=O)N[C@@H](CCCNC(=N)N)C(=O)N[C@@H](CCCNC(=N)N)C(=O)O)C(C)C [Peptide P2_G4A] (H-RGLALALVRRPRGLGLALVRR-OH) | 6.25 | – | – |
| CC(C)C[C@H](NC(=O)CNC(=O)[C@@H](N)CCCNC(=N)N)C(=O)NCC(=O)N[C@@H](CC(C)C)C(=O)N[C@@H](C)C(=O)N[C@@H](CC(C)C)C(=O)N[C@H](C(=O)N[C@@H](CCCNC(=N)N)C(=O)N[C@@H](CCCNC(=N)N)C(=O)N1CCC[C@H]1C(=O)N[C@@H](CCCNC(=N)N)C(=O)N[C@@H](C)C(=O)N[C@@H](CC(C)C)C(=O)NCC(=O)N[C@@H](CC(C)C)C(=O)N[C@@H](C)C(=O)N[C@@H](CC(C)C)C(=O)N[C@H](C(=O)N[C@@H](CCCNC(=N)N)C(=O)N[C@@H](CCCNC(=N)N)C(=O)O)C(C)C)C(C)C [Peptide P2_G13A] (H-RGLGLALVRRPRALGLALVRR-OH) | 12.50 | – | – |
| CC(C)C[C@H](NC(=O)CNC(=O)[C@@H](N)CCCNC(=N)N)C(=O)NCC(=O)N[C@@H](CC(C)C)C(=O)N[C@@H](C)C(=O)N[C@@H](CC(C)C)C(=O)N[C@H](C(=O)N[C@@H](CCCNC(=N)N)C(=O)N[C@@H](CCCNC(=N)N)C(=O)N1CCC[C@H]1C(=O)N[C@@H](CCCNC(=N)N)C(=O)NCC(=O)N[C@@H](CC(C)C)C(=O)N[C@@H](C)C(=O)N[C@@H](CC(C)C)C(=O)N[C@@H](C)C(=O)N[C@@H](CC(C)C)C(=O)N[C@H](C(=O)N[C@@H](CCCNC(=N)N)C(=O)N[C@@H](CCCNC(=N)N)C(=O)O)C(C)C)C(C)C [Peptide P2_G15A] (H-RGLGLALVRRPRGLALALVRR-OH) | 12.50 | – | – |
| CC(C)C[C@H](NC(=O)CNC(=O)[C@H](CCCNC(=N)N)NC(=O)[C@H](CCCNC(=N)N)NC(=O)[C@@H]1CCCN1C(=O)[C@H](CCCNC(=N)N)NC(=O)[C@@H](NC(=O)[C@H](CC(C)C)NC(=O)[C@H](C)NC(=O)[C@H](CC(C)C)NC(=O)CNC(=O)[C@H](CC(C)C)NC(=O)CNC(=O)[C@H](CCCNC(=N)N)NC(=O)[C@@H](N)CCCNC(=N)N)C(C)C)C(=O)NCC(=O)N[C@@H](CC(C)C)C(=O)N[C@@H](C)C(=O)N[C@@H](CC(C)C)C(=O)N[C@H](C(=O)N[C@@H](CCCNC(=N)N)C(=O)O)C(C)C [Peptide P2_GK_10] (H-RRGLGLALVRPRRGLGLALVR-OH) | 12.50 | – | – |
| CC(C)C[C@H](NC(=O)CNC(=O)[C@H](CCCNC(=N)N)NC(=O)[C@@H]1CSSC[C@H](NC(=O)[C@@H](NC(=O)[C@H](CC(C)C)NC(=O)[C@H](C)NC(=O)[C@H](CC(C)C)NC(=O)CNC(=O)[C@H](CC(C)C)NC(=O)CNC(=O)[C@@H](N)CCCNC(=N)N)C(C)C)C(=O)N[C@@H](CCCNC(=N)N)C(=O)N[C@@H](CCCNC(=N)N)C(=O)N[C@@H](CCCNC(=N)N)C(=O)N[C@@H](Cc2ccccc2)C(=O)N1)C(=O)NCC(=O)N[C@@H](CC(C)C)C(=O)N[C@@H](C)C(=O)N[C@@H](CC(C)C)C(=O)N[C@H](C(=O)N[C@@H](CCCNC(=N)N)C(=O)N[C@@H](CCCNC(=N)N)C(=O)O)C(C)C [Peptide P2_H12_FC] (H-RGLGLALVCRRRFCRGLGLALVRR-OH; disulfide 9-14) | – | 3.50 | 6.25 |
| CC(C)C[C@H](NC(=O)CNC(=O)[C@H](CCCNC(=N)N)NC(=O)[C@@H]1CSSC[C@H](NC(=O)[C@@H](NC(=O)[C@H](CC(C)C)NC(=O)[C@H](C)NC(=O)[C@H](CC(C)C)NC(=O)CNC(=O)[C@H](CC(C)C)NC(=O)CNC(=O)[C@@H](N)CCCNC(=N)N)C(C)C)C(=O)N[C@@H](CCCNC(=N)N)C(=O)N[C@@H](CCCNC(=N)N)C(=O)N[C@@H]([C@@H](C)O)C(=O)NCC(=O)N1)C(=O)NCC(=O)N[C@@H](CC(C)C)C(=O)N[C@@H](C)C(=O)N[C@@H](CC(C)C)C(=O)N[C@H](C(=O)N[C@@H](CCCNC(=N)N)C(=O)N[C@@H](CCCNC(=N)N)C(=O)O)C(C)C [Peptide P2_H12_TG] (H-RGLGLALVCRRTGCRGLGLALVRR-OH; disulfide 9-14) | – | 6.50 | 6.25 |
| CC(C)C[C@H](NC(=O)CNC(=O)[C@H](CCCNC(=N)N)NC(=O)[C@@H]1CSSC[C@H](NC(=O)[C@@H](NC(=O)[C@H](CC(C)C)NC(=O)[C@H](C)NC(=O)[C@H](CC(C)C)NC(=O)CNC(=O)[C@H](CC(C)C)NC(=O)CNC(=O)[C@@H](N)CCCNC(=N)N)C(C)C)C(=O)N[C@@H](CCCNC(=N)N)C(=O)N[C@@H](CCCNC(=N)N)C(=O)N[C@H](Cc2ccccc2)C(=O)N2CCC[C@H]2C(=O)N1)C(=O)NCC(=O)N[C@@H](CC(C)C)C(=O)N[C@@H](C)C(=O)N[C@@H](CC(C)C)C(=O)N[C@H](C(=O)N[C@@H](CCCNC(=N)N)C(=O)N[C@@H](CCCNC(=N)N)C(=O)O)C(C)C [Peptide P2_H12_fP] | – | 3.13 | 6.25 |
| CC(C)C[C@H](NC(=O)CNC(=O)[C@H](CCCNC(=N)N)NC(=O)[C@@H]1CSSC[C@H](NC(=O)[C@@H](NC(=O)[C@H](CC(C)C)NC(=O)[C@H](C)NC(=O)[C@H](CC(C)C)NC(=O)CNC(=O)[C@H](CC(C)C)NC(=O)CNC(=O)[C@@H](N)CCCNC(=N)N)C(C)C)C(=O)N[C@@H](CCCNC(=N)N)C(=O)N[C@@H](CCCNC(=N)N)C(=O)N2CCC[C@@H]2C(=O)NCC(=O)N1)C(=O)NCC(=O)N[C@@H](CC(C)C)C(=O)N[C@@H](C)C(=O)N[C@@H](CC(C)C)C(=O)N[C@H](C(=O)N[C@@H](CCCNC(=N)N)C(=O)N[C@@H](CCCNC(=N)N)C(=O)O)C(C)C [Peptide P2_H12_pG] | – | 3.13 | 6.25 |
| CC(C)C[C@H](NC(=O)CNC(=O)[C@H](CCCNC(=N)N)NC(=O)[C@@H]1CCCN1C(=O)[C@H](CCCNC(=N)N)NC(=O)[C@H](CCCNC(=N)N)NC(=O)[C@@H](NC(=O)[C@H](CC(C)C)NC(=O)[C@H](C)NC(=O)[C@H](CC(C)C)NC(=O)CNC(=O)[C@H](C)NC(=O)CNC(=O)[C@@H](N)CCCNC(=N)N)C(C)C)C(=O)NCC(=O)N[C@@H](CC(C)C)C(=O)N[C@@H](C)C(=O)N[C@@H](CC(C)C)C(=O)N[C@H](C(=O)N[C@@H](CCCNC(=N)N)C(=O)N[C@@H](CCCNC(=N)N)C(=O)O)C(C)C [Peptide P2_L3A] (H-RGAGLALVRRPRGLGLALVRR-OH) | 12.50 | – | – |
| CC(C)C[C@H](NC(=O)CNC(=O)[C@H](CCCNC(=N)N)NC(=O)[C@@H]1CCCN1C(=O)[C@H](CCCNC(=N)N)NC(=O)[C@H](CCCNC(=N)N)NC(=O)[C@@H](NC(=O)[C@H](CC(C)C)NC(=O)[C@H](C)NC(=O)[C@H](C)NC(=O)CNC(=O)[C@H](CC(C)C)NC(=O)CNC(=O)[C@@H](N)CCCNC(=N)N)C(C)C)C(=O)NCC(=O)N[C@@H](CC(C)C)C(=O)N[C@@H](C)C(=O)N[C@@H](CC(C)C)C(=O)N[C@H](C(=O)N[C@@H](CCCNC(=N)N)C(=O)N[C@@H](CCCNC(=N)N)C(=O)O)C(C)C [Peptide P2_L5A] (H-RGLGAALVRRPRGLGLALVRR-OH) | 50.00 | – | – |
| CC(C)C[C@H](NC(=O)CNC(=O)[C@H](CCCNC(=N)N)NC(=O)[C@@H]1CCCN1C(=O)[C@H](CCCNC(=N)N)NC(=O)[C@H](CCCNC(=N)N)NC(=O)[C@@H](NC(=O)[C@H](C)NC(=O)[C@H](C)NC(=O)[C@H](CC(C)C)NC(=O)CNC(=O)[C@H](CC(C)C)NC(=O)CNC(=O)[C@@H](N)CCCNC(=N)N)C(C)C)C(=O)NCC(=O)N[C@@H](CC(C)C)C(=O)N[C@@H](C)C(=O)N[C@@H](CC(C)C)C(=O)N[C@H](C(=O)N[C@@H](CCCNC(=N)N)C(=O)N[C@@H](CCCNC(=N)N)C(=O)O)C(C)C [Peptide P2_L7A] (H-RGLGLAAVRRPRGLGLALVRR-OH) | 50.00 | – | – |
| CC(C)C[C@H](NC(=O)CNC(=O)[C@@H](N)CCCNC(=N)N)C(=O)NCC(=O)N[C@@H](CC(C)C)C(=O)N[C@@H](C)C(=O)N[C@@H](CC(C)C)C(=O)N[C@H](C(=O)N[C@@H](CCCNC(=N)N)C(=O)N[C@@H](CCCNC(=N)N)C(=O)N1CCC[C@H]1C(=O)N[C@@H](CCCNC(=N)N)C(=O)NCC(=O)N[C@@H](C)C(=O)NCC(=O)N[C@@H](CC(C)C)C(=O)N[C@@H](C)C(=O)N[C@@H](CC(C)C)C(=O)N[C@H](C(=O)N[C@@H](CCCNC(=N)N)C(=O)N[C@@H](CCCNC(=N)N)C(=O)O)C(C)C)C(C)C [Peptide P2_L14A] (H-RGLGLALVRRPRGAGLALVRR-OH) | 25.00 | – | – |
| CC(C)C[C@H](NC(=O)CNC(=O)[C@H](CCCNC(=N)N)NC(=O)[C@@H]1CCCN1C(=O)[C@H](CCCNC(=N)N)NC(=O)[C@H](CCCNC(=N)N)NC(=O)[C@@H](NC(=O)[C@H](CC(C)C)NC(=O)[C@H](C)NC(=O)[C@H](CC(C)C)NC(=O)CNC(=O)[C@H](CC(C)C)NC(=O)CNC(=O)[C@@H](N)CCCNC(=N)N)C(C)C)C(=O)NCC(=O)N[C@@H](C)C(=O)N[C@@H](C)C(=O)N[C@@H](CC(C)C)C(=O)N[C@H](C(=O)N[C@@H](CCCNC(=N)N)C(=O)N[C@@H](CCCNC(=N)N)C(=O)O)C(C)C [Peptide P2_L16A] (H-RGLGLALVRRPRGLGAALVRR-OH) | 50.00 | – | – |
